{"source": "patent US20210161189A1", "about": "“MONOESTER SUGAR DERIVATIVES AS FLAVOR MODIFIERS” (Firmenich SA, priority 2018, published 2021)", "format_in_all_cases": "in vivo, human", "key": {"sensory panel [1]": {"test_system": "sensory panel", "assay": "Sensory panel, strawberry flavored bottled water (BWAT) containing 7% w/v sucrose", "details": "100 ppm in strawberry BWAT 7% sucrose; panel score", "protocol": "Next, glucose-6-O-octanoate was added to a fruit flavored bottled water test composition (strawberry flavored water, containing 7% w/v sucrose), to result in a final concentration of 100 ppm in the test composition."}, "sensory panel [2]": {"test_system": "sensory panel", "assay": "Sensory panel, lemon flavored alcoholic beverage", "parameters": "scale not given here", "details": "panel score", "protocol": "(§1) […] In parallel, a control composition, comprising lemon flavored alcoholic beverage was also generated. A sensory panel consisting of between 6 to 8 persons compared the overall flavor, sweetness, acidity, bitterness, astringency, off-notes, and long-lastingness of the sweetness of the test composition and the control composition. The results were analyzed using the Duncan comparison test."}, "sensory panel [3]": {"test_system": "sensory panel", "assay": "Sensory panel, raspberry flavored water", "parameters": "scale not given here", "details": "panel score", "protocol": "as §1, with “raspberry” for “lemon”, “water” for “alcoholic beverage”"}, "sensory panel [4]": {"test_system": "sensory panel", "assay": "Sensory panel, orange flavored test composition", "details": "200 ppm in orange flavored test composition, panel score", "protocol": "Next, glucose-6-O-octanoate was added to an orange flavored test composition, to result in a final concentration of 200 ppm in the test composition. In parallel, a control composition, comprising orange flavor was also generated. A sensory panel consisting of between 6 to 8 persons compared the overall flavor, sweetness, acidity, bitterness, astringency, off-notes, and long-lastingness of the sweetness of the test composition and the control composition. The results were analyzed using the Duncan comparison test."}, "[5]": {"details": "100 ppm in lemon flavored alcoholic beverage"}, "[6]": {"details": "200 ppm in lemon flavored alcoholic beverage"}}, "data": [{"smiles": "CCCCCCCC(=O)OC[C@@H](O)[C@@H](O)[C@H](O)[C@@H](O)C=O", "note": "[glucose-6-O-octanoate]", "values": [{"measurement": "Astringency", "setting": "sensory panel [1]", "result": 0.5}, {"measurement": "Long-Lasting", "setting": "sensory panel [1]", "result": 0.92}, {"measurement": "Off-notes", "setting": "sensory panel [1]", "result": 0.33}, {"measurement": "Overall Flavor", "setting": "sensory panel [1]", "result": 3}, {"measurement": "Sweetness", "setting": "sensory panel [1]", "result": 4.08}, {"measurement": "Acidity", "setting": "sensory panel [2]; [5]", "result": 2}, {"measurement": "Astringency", "setting": "sensory panel [2]; [5]", "result": 1}, {"measurement": "Off-notes", "setting": "sensory panel [2]; [5]", "result": 0.25}, {"measurement": "Overall Flavor", "setting": "sensory panel [2]; [5]", "result": 3.5}, {"measurement": "Sweetness", "setting": "sensory panel [2]; [5]", "result": 3}, {"measurement": "Acidity", "setting": "sensory panel [2]; [6]", "result": 2}, {"measurement": "Astringency", "setting": "sensory panel [2]; [6]", "result": 2}, {"measurement": "Bitterness", "setting": "sensory panel [2]; [6]", "result": 1.1}, {"measurement": "Long-Lasting", "setting": "sensory panel [2]; [6]", "result": 1.6}, {"measurement": "Off-notes", "setting": "sensory panel [2]; [6]", "result": 0.4}, {"measurement": "Overall Flavor", "setting": "sensory panel [2]; [6]", "result": 2.3}, {"measurement": "Astringency", "setting": "sensory panel [3]; 100 ppm in raspberry water", "result": 0.58}, {"measurement": "Bitterness", "setting": "sensory panel [3]; 100 ppm in raspberry water", "result": 0.5}, {"measurement": "Long-Lasting", "setting": "sensory panel [3]; 100 ppm in raspberry water", "result": 0.67}, {"measurement": "Overall Flavor", "setting": "sensory panel [3]; 100 ppm in raspberry water", "result": 3.33}, {"measurement": "Sweetness", "setting": "sensory panel [3]; 100 ppm in raspberry water", "result": 3.42}, {"measurement": "Acidity", "setting": "sensory panel [3]; 200 ppm in raspberry water", "result": 2.62}, {"measurement": "Long-Lasting", "setting": "sensory panel [3]; 200 ppm in raspberry water", "result": 1.81}, {"measurement": "Overall Flavor", "setting": "sensory panel [3]; 200 ppm in raspberry water", "result": 3.06}, {"measurement": "Sweetness", "setting": "sensory panel [3]; 200 ppm in raspberry water", "result": 2.69}, {"measurement": "Acidity", "setting": "sensory panel [4]", "result": 2.07}, {"measurement": "Astringency", "setting": "sensory panel [4]", "result": "decreasing"}, {"measurement": "Bitterness", "setting": "sensory panel [4]", "result": "decreasing the perceived bitterness"}, {"measurement": "Long-Lasting", "setting": "sensory panel [4]", "result": 0.29}, {"measurement": "Off-notes", "setting": "sensory panel [4]", "result": 0.14}, {"measurement": "Overall Flavor", "setting": "sensory panel [4]", "result": 3}, {"measurement": "Sweetness", "setting": "sensory panel [4]", "result": 2.79}, {"measurement": "Astringency", "setting": "sensory panel [4]; listed as 71007", "result": 1, "unit": "B"}, {"measurement": "Bitterness", "setting": "sensory panel [4]; listed as 71007", "result": 1.07, "unit": "B"}]}]}
